Results taken from patent publication US20130310439A1, “METHOD OF REDUCING PROTEINS MISFOLDING AND/OR AGGREGATION” (Universidade De Lisboa, priority 2010, published 2013).

Test system: Q35 animals (C. elegans model of polyQ aggregation)
Assay: polyQ aggregation in Q35 animals treated with cholinergic agonists
Assay type: in vivo
Settings: one day old (L1s) Q35 animals
Procedure: FIG. 1A: One day old (L1s) Q35 animals were treated with 25 μM levamisole or 1 mM nicotine. The white boxes indicate magnified areas shown below. The photographs are from 4 days old animals.
FIG. 1B are bar graphs showing the number of aggregates in Q35 animals treated with nicotine, levamisole or control animals as a function of age (days).
Additional methods are described in Garcia et al. (2007), Genes and Development 21: 3006-16.

Question: Which “polyQ aggregation compared to control animals” value (1 mM nicotine) does the source give for `CN1CCCC1c1cccnc1` (centres unmarked) [nicotine] here?
Answer: increased polyQ aggregation

Question: Which “polyQ aggregation compared to control animals” value (25 μM levamisole) does the source give for `c1ccc([C@H]2CN3CCSC3=N2)cc1` [levamisole] here?
Answer: increased polyQ aggregation
